Some test systems named below: XF 498 CNS; P388 leukemia; DLD-1 colon; HOP-18 NSCLC; SN12K1 renal; P388/ADR leukemia; LXFL 529 NSCLC.
Holding throughout (experiment): NCI tumour cell line growth inhibition, 48 h

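Briefly, cells in 96-well plates were exposed to five compound concentrations for 48 h, and endpoints were estimated by linear interpolation. TGI: total growth inhibition.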

As to `Cc1[nH]c(=O)[nH]c(=O)c1/C=C/C(=O)NC(CO)CS(=O)Cc1ccccc1` (stereo not given), the TGI in the assay on XF 498 CNS, with P388 leukemia, with DLD-1 colon, in the assay on HOP-18 NSCLC, with SN12K1 renal and with P388/ADR leukemia was above 300 µM throughout.
Turning to `CC(C)C(=O)CC(c1ccc(Cl)cc1)N1N=C(C(C)C)CC1c1ccc(Cl)cc1` (stereo not given), the TGI in the assay on LXFL 529 NSCLC is above 100 µM.
Take `CCCn1cc2c(SC)nc(SC)nc2n1`: the TGI in the assay on XF 498 CNS, in the assay with DLD-1 colon and in the assay with HOP-18 NSCLC was above 100 µM throughout.

Source of the values: PubChem BioAssay (NCI).
